Experimental data published in PubChem BioAssay (NCI).
“And” between values parts separate entries of the source, which are not always exact repeats. Equal values may be shown once.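 Method: 48-hour compound exposure of cells in 96-well plates, five concentrations, linear interpolation of endpoints. Here, GI50 denotes the concentration required for 50% inhibition of growth. TGI is the concentration that stops growth completely.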

Experiments:
Assay in all cases: NCI tumour cell line growth inhibition, 48 h
CAKI-1 renal = system: CAKI-1 renal
NCI-H460 lung = system: NCI-H460 lung
OVCAR-5 ovarian = system: OVCAR-5 ovarian
RXF 393 renal = system: RXF 393 renal
T-47D breast = system: T-47D breast
SF-295 CNS = system: SF-295 CNS
KM12 colon = system: KM12 colon
A498 renal = system: A498 renal
UACC-257 melanoma = system: UACC-257 melanoma
K-562 leukemia = system: K-562 leukemia

| SMILES | GI50 (CAKI-1 renal) | TGI (CAKI-1 renal) | GI50 (NCI-H460 lung) | TGI (NCI-H460 lung) | GI50 (OVCAR-5 ovarian) | TGI (OVCAR-5 ovarian) | GI50 (RXF 393 renal) | TGI (RXF 393 renal) | GI50 (T-47D breast) | TGI (T-47D breast) | GI50 (SF-295 CNS) | TGI (SF-295 CNS) | GI50 (KM12 colon) | TGI (KM12 colon) | GI50 (A498 renal) | TGI (A498 renal) | GI50 (UACC-257 melanoma) | TGI (UACC-257 melanoma) | GI50 (K-562 leukemia) | TGI (K-562 leukemia) |
| --- | --- | --- | --- | --- | --- | --- | --- | --- | --- | --- | --- | --- | --- | --- | --- | --- | --- | --- | --- | --- |
| CC1(C)CC(OCCCC[P+](c2ccccc2)(c2ccccc2)c2ccccc2)CC(C)(C)N1O | 1.19 µM | 4.01 µM | 0.282 µM | 1.52 µM | 0.481 µM | 8.42 µM | 0.518 µM | 2.08 µM | 0.143 µM | 1.23 µM | 0.337 µM | 1.39 µM | 0.284 µM | 0.966 µM | 0.644 µM | 3.89 µM | 0.307 µM | 0.977 µM | 0.186 µM | 18.1 µM |
| Nc1ncnc2c(C3OC(CO)C(O)C3O)[nH]nc12 (stereo not drawn) | 0.0365 µM and 0.061 µM | 0.281 µM and 0.214 µM | 0.0434 µM | 2.12 µM and 1.44 µM | 0.0727 µM | 3.58 µM and 8.57 µM | – | 2.92 µM and 1.88 µM | 0.0308 µM | 1.57 µM | 0.231 µM | 1.1 µM and 10.1 µM | 0.076 µM | 8.13 µM and 14.3 µM | 0.203 µM | 3.98 µM and 4.78 µM | 1.45 µM and 2.1 µM | 10.2 µM and 26.6 µM | 0.0459 µM | 2.03 µM |
| COC(=O)c1ccc2c(c1)C(=O)c1c-2n(CCCN)c(=O)c2cc([N+](=O)[O-])ccc12 | < 0.01 µM | 1.36 µM | 0.0434 µM | 1.1 µM | 0.139 µM | 0.661 µM | < 0.0345 µM | 0.118 µM | < 0.0173 µM | 1.34 µM | < 0.01 µM | – | 0.0675 µM | 0.94 µM | 0.116 µM | 1.44 µM | 0.234 µM | 1.23 µM | 0.0206 µM | 2.02 µM |
| O=C1c2cc3c(cc2[C@@H]2[C@H]1c1ccc([N+](=O)[O-])cc1C(=O)N2CCCCl)OCO3 | < 0.01 µM | < 0.01 µM | < 0.01 µM | 13.6 µM | < 0.0144 µM | – | < 0.01 µM | 10.1 µM | > 100 µM | > 100 µM | < 0.01 µM | 11.4 µM | < 0.0113 µM | 2.05 µM | < 0.01 µM | < 0.01 µM | < 0.01 µM | – | 0.857 µM | > 100 µM |
| COc1cccc(-n2ncc3c(N/N=C/c4ccc(S(C)(=O)=O)cc4)ncnc32)c1 | 4.81 µM | > 25 µM | 6.56 µM | > 25 µM | > 25 µM | > 25 µM | 2.2 µM | 8.76 µM | 7.4 µM | > 21 µM | 12.3 µM | > 25 µM | 6.29 µM | > 25 µM | 0.75 µM | 11.3 µM | > 18 µM | > 25 µM | > 6.65 µM | > 25 µM |
| CNNC(=N\S(=O)(=O)c1cc(C(=O)Nc2ccc(Cl)cc2)c(Cl)cc1SCc1ccccc1)/N=C/c1ccc([N+](=O)[O-])s1 | > 100 µM | > 100 µM | 3.91 µM | > 27.7 µM | > 100 µM | > 100 µM | > 100 µM | > 100 µM | 7.07 µM | > 100 µM | > 100 µM | > 100 µM | > 100 µM | > 100 µM | > 100 µM | > 100 µM | > 100 µM | > 100 µM | 15.9 µM | > 100 µM |
| CCN(CC)CCCOc1cc(O)c2c(=O)cc(-c3ccccc3)oc2c1 | 13.9 µM | 38.8 µM | 4.2 µM | 14.6 µM | 13 µM | 25.7 µM | 11.6 µM | 28.8 µM | 15.5 µM | 33.4 µM | 11.9 µM | 28.1 µM | 11.7 µM | 33.3 µM | 10.2 µM | 22.4 µM | 3.4 µM | 12.5 µM | 1.48 µM | 3.67 µM |
| O=C1OC(C2=CC(=O)c3ccccc3C2=O)C(Cl)=C1Cl (stereo not drawn) | – | > 100 µM | – | > 100 µM | – | > 100 µM | – | 52.5 µM | – | 83.7 µM | – | > 100 µM | – | > 100 µM | – | > 100 µM | – | > 100 µM | – | 83.3 µM |
| S=C=NCc1ccccc1 | – | 4.26 µM | – | 24.5 µM | – | 29.8 µM | – | 3.18 µM | – | 33.3 µM | – | 19.4 µM | – | 15.8 µM | – | 14 µM | – | 15.2 µM | – | > 19.9 µM |
| CC1(C)N=C(N)N=C(N)N1c1cccc(CCCCc2ccccc2)c1 | 4.15 µM | 22.3 µM | 0.0493 µM | 11.4 µM | 11.1 µM | 25.9 µM | 2.28 µM | 17.2 µM | 1.28 µM | 16.2 µM | 0.229 µM | 5.79 µM | 0.212 µM | 1.86 µM | 1.75 µM | 15.9 µM | 0.78 µM | 12.1 µM | 0.0688 µM | 13.6 µM |
| O=C1c2ccccc2-c2n[nH]c3cccc1c23 | 2.98 µM | 18.2 µM and 22.6 µM | 8.6 µM | > 100 µM | – | 85.4 µM and > 100 µM | 5.89 µM | > 100 µM and 56.9 µM | 45.1 µM | > 100 µM | – | 86.3 µM and > 100 µM | 3.1 µM | 72 µM and > 100 µM | 4.95 µM | 35.4 µM and 52.4 µM | – | > 100 µM | 15.6 µM | > 100 µM |
| COc1ccc2c(c1)sc1nc(-c3ccccc3)c(-c3ccc(O)c(OC)c3)n12 | 8.54 µM | > 100 µM | 6.51 µM | > 100 µM | 33.7 µM | > 100 µM | 4.9 µM | 29.8 µM | 83.1 µM | > 100 µM | 8 µM | > 100 µM | 4.81 µM | > 100 µM | 28.3 µM | > 100 µM | > 100 µM | > 100 µM | 4.53 µM | > 100 µM |
| C=CC(=O)N1CCC([C@@H]2CCNc3c(C(N)=O)c(-c4ccc(Oc5ccccc5)cc4)nn32)CC1 | 10.4 µM | 44.7 µM | 29.8 µM | > 89.7 µM | 22.2 µM | > 100 µM | 9.05 µM | 25.5 µM | 3.49 µM | > 87.1 µM | 22.4 µM | > 76.6 µM | 31.5 µM | 98.9 µM | 1.67 µM | 9.25 µM | 16.5 µM | 50.4 µM | 25.3 µM | > 100 µM |
